Two compounds from US8604225B2, “Method of producing hydroxymethyl-furfural” (Novozymes, A/S, priority 2010, dated 2013) can be followed below.

The target in data set [1] is T1, immobilized glucose isomerase (Sweetzyme™) (Streptomyces murinus, UniProt P37031). The data set can be described thus: Glucose isomerase performance with substrate containing HMF. It counts as biochemical, S. murinus. Also noted: purchased Novozymes A/S. The following applies: for Activity: Syrup with 0.1 w/w % HMF. On the procedure: To the substrate was added hydroxymethylfurfural (HMF) to a final concentration of 0.1 w/w % HMF.
T1 sequence (P37031 whole entry): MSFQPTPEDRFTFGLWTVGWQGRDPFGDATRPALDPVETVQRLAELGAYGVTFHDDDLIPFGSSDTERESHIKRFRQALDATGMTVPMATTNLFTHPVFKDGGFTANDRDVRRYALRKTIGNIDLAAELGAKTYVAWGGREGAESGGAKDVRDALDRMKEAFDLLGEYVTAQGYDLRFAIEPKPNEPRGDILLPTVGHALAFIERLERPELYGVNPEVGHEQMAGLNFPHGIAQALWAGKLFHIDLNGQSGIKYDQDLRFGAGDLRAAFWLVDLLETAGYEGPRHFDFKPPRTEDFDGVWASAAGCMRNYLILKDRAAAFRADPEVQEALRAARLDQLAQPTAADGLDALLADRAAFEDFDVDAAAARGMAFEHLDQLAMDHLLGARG

Data set [2] deals with T1, immobilized glucose isomerase (Sweetzyme™). The data set can be described thus: Effect of HMF on the initial activity of Sweetzyme™ (batch bottles). It counts as biochemical, S. murinus. The arrangement: purchased Novozymes A/S. The following applies: for initial activity: 60° C. As for the experimental part: 2.5 gram immobilized glucose isomerase (Sweetzyme™) was loaded to a 250 mL square shaped bottles with screw cap. The bottles were placed in an orbital shaker and heated to 60° C.
The following conditions were applied for 4 bottles. The term conversion is defined as the fructose/glucose ratio.
Conversion vs. time is presented in FIG. 10 and the initial activity is calculated to be 389.
Conversion vs. time is presented in FIG. 11 and the initial activity is calculated to be 378.
Conversion vs. time is presented in FIG. 12 and the initial activity is calculated to be 364.

Data set [3] is described as follows: HMF distribution between organic extraction solvent and aqueous phase. It counts as physicochemical. The following applies: B(OH)3 and NaCl, organic:aqueous 4:1, 150° C. On the procedure:
An aqueous solution containing 30 wt % fructose (3 mL, 5.7 mmol) was mounted in an Ace vial pressure tube (stable to ˜20 Bar) and solid B(OH)3 (0.3 g, 5 mmol) and NaCl (0.15 g, 3 mmol) were added to the solution. Different organic extraction solvent were added resulting in a organic:aqueous volume ratio of 4:1. The tube with the reaction mixture was placed in a preheated oil bath for a specified time under magnetic stirring (420 rpm) at a 150° C. (reaction times were measured after a stable oil bath temperature had been reached). After the reaction, the tube was removed from the oil bath and cooled to room temperature before a sample was taken for analysis. A sample of the reaction mixture was collected and filtered through a syringe filter (0.45 μm PTFE), mixed with an internal standard (i-PrOH) and analyzed via HPLC.
The R value indicated in table 10 is the HMF distribution obtained between the MIBK phase and the aqueous phase, i.e. [HMF]MIBK/[HMF]aq.

`O=Cc1ccc(CO)o1` [HMF, 5-(hydroxymethyl)-2-furaldehyde]: the Activity amounted to 360.39 IGIU/g in data set [1] (time 94.25 h); 267.97 IGIU/g in data set [1] (time 116.25 h); 368.20 IGIU/g in data set [1] (time 139.50 h); 359.92 IGIU/g in data set [1] (time 162.75 h); 367.23 IGIU/g in data set [1] (time 237.25 h); 353.51 IGIU/g in data set [1] (time 259.17 h). Further, the Activity stood at 363.92 IGIU/g in data set [1] (time 283.67 h) and 358.90 IGIU/g in data set [1] (time 311.08 h). For the same compound, the “decay rate compared to a column with normal syrup” value in data set [1] (after 9 days with substrate containing 0.1 w/w % HMF) is “not affected”. In addition, the initial activity in data set [2] (Bottle 2: 0.01 w/w % HMF in 45% glucose syrup) stood at 389; in data set [2] (Bottle 3: 0.1 w/w % HMF in 45% glucose syrup), 378; in data set [2] (Bottle 4: 1 w/w % HMF in 45% glucose syrup), 364. In addition, the “Sweetzyme™ activity as a function of HMF concentration” value in data set [2] (FIG. 13, 0.01-1 w/w % HMF) was “not seriously affected”.
For the compound `C1CCOC1` [THF, tetrahydrofuran], the R-value in data set [3] (30 wt % fructose, time not given) turned out to be 3.2; in data set [3] (60 min) it was 3.7; in data set [3] (75 min) it was 3.6.
